Assay results taken from article PMC9516332 (Frontiers in Oncology, 2022).

Key:
Experiment in all cases: Kinase panel profiling at 1 µmol/L (MSA or IMAP), percentage inhibition
Type in all cases: biochemical
[1] = biological target: panel of 255 wild-type kinases (Homo sapiens, UniProt P35968); conditions: kinase KDR; 1 µmol/L single concentration; read-out: %-inhibition at 1 µmol/L, KDR
[2] = biological target: T1, panel of 255 wild-type kinases (Homo sapiens, UniProt Q9BXA7); conditions: kinase TSSK1; 1 µmol/L single concentration; read-out: %-inhibition at 1 µmol/L, TSSK1
T1 sequence (Q9BXA7 1-367): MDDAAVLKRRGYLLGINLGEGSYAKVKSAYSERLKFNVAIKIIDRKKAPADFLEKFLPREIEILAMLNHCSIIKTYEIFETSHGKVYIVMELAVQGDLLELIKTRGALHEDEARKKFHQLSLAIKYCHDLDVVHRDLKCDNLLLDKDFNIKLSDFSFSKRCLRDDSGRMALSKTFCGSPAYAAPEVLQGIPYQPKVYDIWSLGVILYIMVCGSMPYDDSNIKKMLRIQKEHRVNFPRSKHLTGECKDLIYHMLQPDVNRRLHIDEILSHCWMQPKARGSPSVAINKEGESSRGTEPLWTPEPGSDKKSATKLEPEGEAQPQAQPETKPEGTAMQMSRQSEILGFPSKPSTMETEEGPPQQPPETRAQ

[3] = biological target: panel of 255 wild-type kinases (Homo sapiens, UniProt P00519); conditions: ABL kinase assay; 1 µmol/L single concentration; read-out: %-inhibition ABL
[4] = biological target: panel of 255 wild-type kinases (Homo sapiens, UniProt Q13627); conditions: kinase DYRK1A; 1 µmol/L single concentration; read-out: %-inhibition at 1 µmol/L, DYRK1A
[5] = biological target: panel of 255 wild-type kinases (Homo sapiens, UniProt P68400); conditions: kinase CK2α1/β; 1 µmol/L single concentration; read-out: %-inhibition at 1 µmol/L, CK2α1/β
[6] = biological target: panel of 255 wild-type kinases (Homo sapiens, UniProt Q9Y2H1); conditions: NDR2; 1 µmol/L single concentration; read-out: %-inhibition, NDR2
[7] = biological target: panel of 255 wild-type kinases (Homo sapiens, UniProt Q16512); conditions: kinase PKN1; 1 µmol/L single concentration; read-out: %-inhibition at 1 µmol/L, PKN1
[8] = biological target: T2, panel of 255 wild-type kinases (Homo sapiens, UniProt Q9NRM7); conditions: kinase LATS2; 1 µmol/L single concentration; read-out: %-inhibition at 1 µmol/L, LATS2
T2 sequence (Q9NRM7 1-1088): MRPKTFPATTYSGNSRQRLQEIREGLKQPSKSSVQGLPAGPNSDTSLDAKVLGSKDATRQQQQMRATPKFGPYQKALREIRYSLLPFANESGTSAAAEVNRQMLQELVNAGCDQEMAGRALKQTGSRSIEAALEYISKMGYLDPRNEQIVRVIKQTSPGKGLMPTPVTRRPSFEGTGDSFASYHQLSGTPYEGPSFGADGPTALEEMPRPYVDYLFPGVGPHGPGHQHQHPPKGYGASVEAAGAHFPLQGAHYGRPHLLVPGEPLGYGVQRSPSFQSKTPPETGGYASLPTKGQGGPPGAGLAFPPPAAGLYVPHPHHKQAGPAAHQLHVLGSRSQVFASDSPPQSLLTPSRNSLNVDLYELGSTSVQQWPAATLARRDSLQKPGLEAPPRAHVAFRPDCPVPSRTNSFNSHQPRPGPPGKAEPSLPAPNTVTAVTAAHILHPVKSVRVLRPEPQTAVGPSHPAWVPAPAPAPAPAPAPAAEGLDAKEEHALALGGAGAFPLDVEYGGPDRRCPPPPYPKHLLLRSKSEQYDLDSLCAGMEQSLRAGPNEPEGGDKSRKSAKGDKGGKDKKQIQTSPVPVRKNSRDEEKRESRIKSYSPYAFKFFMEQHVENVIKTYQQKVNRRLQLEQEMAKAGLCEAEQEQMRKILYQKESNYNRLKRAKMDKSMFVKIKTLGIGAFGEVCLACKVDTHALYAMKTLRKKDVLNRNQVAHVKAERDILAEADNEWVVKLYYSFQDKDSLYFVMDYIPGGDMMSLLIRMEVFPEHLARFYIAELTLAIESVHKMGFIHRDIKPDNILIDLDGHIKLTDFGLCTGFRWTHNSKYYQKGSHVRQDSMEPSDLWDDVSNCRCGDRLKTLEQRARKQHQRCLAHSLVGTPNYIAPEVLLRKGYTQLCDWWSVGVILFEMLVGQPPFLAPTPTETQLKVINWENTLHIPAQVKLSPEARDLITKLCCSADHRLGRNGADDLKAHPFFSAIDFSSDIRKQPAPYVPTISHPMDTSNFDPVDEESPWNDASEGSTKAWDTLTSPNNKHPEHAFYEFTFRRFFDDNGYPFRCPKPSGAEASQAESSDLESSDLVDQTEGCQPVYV

[9] = biological target: panel of 255 wild-type kinases (Homo sapiens, UniProt P51617); conditions: kinase IRAK1; 1 µmol/L single concentration; read-out: %-inhibition at 1 µmol/L, IRAK1

| SMILES | inhibition at 1 µM [1] [%] | inhibition at 1 µM [2] [%] | inhibition at 1 µM [3] [%] | inhibition at 1 µM [4] [%] | inhibition at 1 µM [5] [%] | inhibition at 1 µM [6] [%] | inhibition at 1 µM [7] [%] | inhibition at 1 µM [8] [%] | inhibition at 1 µM [9] [%] |
| --- | --- | --- | --- | --- | --- | --- | --- | --- | --- |
| CO[C@]1(C(=O)N[C@@H](C)c2ccc(-n3cc(F)cn3)nc2)CC[C@H](c2nc(C)cc(Nc3cc(C)[nH]n3)n2)CC1 [pralsetinib] | 95 | 4.54 | 37 | -3 | -2.52 | 0.23 | 27 | 7.44 | 9 |
| C=CC(=O)N1CCC([C@@H]2CCNc3c(C(N)=O)c(-c4ccc(Oc5ccccc5)cc4)nn32)CC1 [zanubrutinib] | 11 | 2.13 | -4.52 | -4.37 | -2 | 0.505 | -11 | -0.0723 | -2.53 |
| Cn1cc(-c2cc3c(N4CCN(c5ncc([C@@](C)(N)c6ccc(F)cc6)cn5)CC4)ncnn3c2)cn1 [avapritinib] | 71 | 2.83 | 57 | 57 | -3.77 | -2.84 | 19 | 1.47 | 8 |
